From PubChem BioAssay AID434951 (Broad Institute, 2010)
pEC50: −log10 of the molar value. Active and inactive are the calls of the source.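 Rule for the calls: active = a fitted half-maximal concentration EC50 for the rise in nuclear signal no higher than ten times the top dose tested; inconclusive = flat fit with activity between 30% and 70%, or unusable fit; inactive = EC50 beyond ten times the top dose.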

The compounds below were run against Hypoxia-inducible factor 1-alpha (Homo sapiens) (UniProt Q16665) (assay: HIF pathway activation, GFP-HIF1alpha translocation – imaging, fluorescence, U2OS GFP-HIF1alpha, confirmation (AID 434951)). Conditions: U2OS GFP-HIF1alpha nuclear intensity, high-content imaging.
Chain of Hypoxia-inducible factor 1-alpha (Homo sapiens) (Q16665 whole entry, looked up): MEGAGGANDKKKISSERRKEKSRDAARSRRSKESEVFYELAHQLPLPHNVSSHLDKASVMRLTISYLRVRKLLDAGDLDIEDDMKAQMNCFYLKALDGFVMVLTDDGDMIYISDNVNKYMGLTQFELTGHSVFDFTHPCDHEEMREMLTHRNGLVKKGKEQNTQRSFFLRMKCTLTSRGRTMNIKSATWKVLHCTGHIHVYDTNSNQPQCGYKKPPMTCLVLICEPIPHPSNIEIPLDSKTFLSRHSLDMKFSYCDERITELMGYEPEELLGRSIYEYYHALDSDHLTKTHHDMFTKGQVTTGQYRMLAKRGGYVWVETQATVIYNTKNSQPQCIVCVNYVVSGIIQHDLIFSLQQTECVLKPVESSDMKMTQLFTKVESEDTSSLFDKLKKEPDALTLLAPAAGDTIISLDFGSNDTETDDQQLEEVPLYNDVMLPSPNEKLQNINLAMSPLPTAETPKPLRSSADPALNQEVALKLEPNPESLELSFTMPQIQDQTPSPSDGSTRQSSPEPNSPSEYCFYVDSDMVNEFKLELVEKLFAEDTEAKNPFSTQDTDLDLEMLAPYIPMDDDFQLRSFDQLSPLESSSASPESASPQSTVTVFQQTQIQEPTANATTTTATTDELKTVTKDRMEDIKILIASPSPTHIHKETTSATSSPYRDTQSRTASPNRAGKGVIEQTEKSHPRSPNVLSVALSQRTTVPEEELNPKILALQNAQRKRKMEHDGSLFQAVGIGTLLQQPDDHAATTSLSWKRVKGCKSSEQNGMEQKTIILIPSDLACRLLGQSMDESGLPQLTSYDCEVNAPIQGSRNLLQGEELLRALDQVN
`CCn1nc(NS(=O)(=O)c2ccc(NC(C)=O)cc2)c2cc3cccc(C)c3nc21` was tested, and the EC50 was > 35 µM (inactive). `COc1ccccc1NC(=O)CN(C)S(=O)(=O)c1cccc2cccnc12` was tested, and the EC50 was > 35 µM (inactive). `c1ccc2c(NCCc3c[nH]c4ccccc34)c3ccccc3nc2c1` was tested, and the EC50 was > 35 µM (inactive). For `CCOC(=O)c1c(NS(=O)(=O)c2ccccc2)n(CCCOC)c2nc3ccccc3nc12`, the EC50 was > 35 µM (inactive). In the case of `COCCNC(=O)c1sc2nc(-c3ccccc3)cn2c1C`, the EC50 was > 35 µM (inactive). In the case of `COc1ccc(NC(=S)NCc2cccnc2)cc1`, the EC50 was > 35 µM (inactive). With `COc1ccc(-n2c(C)csc2=S)cc1` the EC50 was > 35 µM (inactive). In the case of `Cc1ccc(Nc2nnc(-c3ccccc3N)o2)cc1C`, the EC50 was > 35 µM (inactive). `Cc1cccc(-c2noc(CN(C)S(=O)(=O)c3cc(Cl)ccc3Cl)n2)c1` was tested, and the EC50 was > 35 µM (inactive). `O=c1cc(CO)[nH]cc1OCc1ccccc1` was tested, and the EC50 was > 35 µM (inactive). `COc1ccc(/C(C)=N/NC(=O)c2cccc(S(=O)(=O)N3CCCC3)c2)c(O)c1` showed a pEC50 of 5.24. With `CCCCOC(=O)c1ccc(NC(=O)C(=O)NCc2cccnc2)cc1` the EC50 was > 35 µM (inactive). In the case of `Cc1ccc(C)c(-n2nnnc2Sc2nnnn2-c2ccccc2)c1`, the EC50 was > 35 µM (inactive). In the case of `Cn1nnc(NC(=O)c2cccc([N+](=O)[O-])c2)n1`, the EC50 was > 35 µM (inactive). `Cc1ccc(C)c(OCC(=O)N2CCN(Cc3ccc4c(c3)OCO4)CC2)c1` was tested, and the EC50 was > 35 µM (inactive). For `COc1ccc(C2NN=C(c3ccc(C)cc3)S2)cc1` (configuration not stated), the EC50 was > 35 µM (inactive). With `Cn1cc(CC(=O)N2CCN(c3ccc(Cl)cc3)CC2)c2ccccc21` the EC50 was > 35 µM (inactive). With `CN1CCN(Cc2cc(COCc3ccccc3)c3cccnc3c2O)CC1` the pEC50 was 5.11. `Cc1nnc(-c2ccccc2)c(=O)n1/N=C/c1c(O)ccc2ccccc12` was tested, and the pEC50 was 5.08. For `CC(C)NC(=S)NN=C1c2ccccc2-c2ccccc21`, the EC50 was > 35 µM (inactive). With `O=C(N/N=C/c1cc(Br)ccc1OC(=O)c1ccc(Br)cc1)c1ccncc1` the EC50 was > 35 µM (inactive). In the case of `Cc1ccc(C)c(-c2cc(C(=O)Nc3cccc(C(=O)O)c3)c3ccccc3n2)c1`, the EC50 was > 35 µM (inactive). With `Cc1ccc2nc(SCC(=O)N3CCCCC3)nc(=O)n2c1` the EC50 was > 35 µM (inactive). `COc1cccc(CNC(=O)CCCn2c(=S)[nH]c3cc4c(cc3c2=O)OCO4)c1` was tested, and the EC50 was > 35 µM (inactive). For `O=S(=O)(/C=C/c1ccccc1)N1CCNCC1`, the EC50 was > 35 µM (inactive). For `CCOc1ccc(/C=N/NC(=O)c2[nH]ncc2Br)c(O)c1`, the pEC50 was 4.99. `Cc1ccc(N(C)S(=O)(=O)c2ccc(-c3cc(C)no3)s2)cc1` was tested, and the EC50 was > 35 µM (inactive). In the case of `O=C(NC(=S)Nc1ccccn1)c1cc(-c2ccccc2)nc2ccccc12`, the EC50 was > 35 µM (inactive). For `COc1ccc(CC(=O)Nc2cccc(-c3nnc(-c4ccccc4)o3)c2)cc1OC`, the EC50 was > 35 µM (inactive). `COC(=O)C1C(=O)N2CCCSC2=C(C#N)C1c1cccs1` (configuration not stated) was tested, and the EC50 was > 35 µM (inactive). `N/C(=N\OC(=O)Cc1cccs1)c1ccccc1` was tested, and the EC50 was > 35 µM (inactive). For `Cc1cc(C(=O)O)oc(=O)c1`, the EC50 was > 35 µM (inactive). With `Cn1c(SCC(=O)c2ccccc2)nnc1-c1ccco1` the EC50 was > 35 µM (inactive). With `COc1cccc(CN2CCC(N(CCc3ccccc3)Cc3ccccc3)CC2)c1OC` the EC50 was > 35 µM (inactive). With `Cc1ccc(C(=O)CSc2ccc(-c3ccncc3)nn2)cc1` the EC50 was > 35 µM (inactive). With `COc1ccc(N2CCN(C(=O)COc3ccc4c(C)c(C)c(=O)oc4c3C)CC2)cc1` the EC50 was > 35 µM (inactive). `CC1=NN2C(=N)/C(=C\c3cc(C)n(Cc4ccccc4)c3C)C(=O)N=C2S1` was tested, and the EC50 was > 35 µM (inactive). For `CCCc1nc2ccccc2c(=O)n1/N=C/c1ccccc1O`, the EC50 was > 35 µM (inactive). For `COc1cccc(C(=O)CN2C(=O)C(C)(C)Oc3ccc(C(=O)N4CCOCC4)cc32)c1`, the EC50 was > 35 µM (inactive). With `COc1ccc(C2NC(=S)NC3=C2CCCC3=C2SCCS2)cc1` (configuration not stated) the pEC50 was 4.75. `O=C(N/N=C/c1ccc(O)c(O)c1O)/C(=C/c1ccc([N+](=O)[O-])cc1)NC(=O)c1ccccc1` was tested, and the EC50 was > 35 µM (inactive). With `FC(F)Oc1ccc(NC(=S)Nc2ccc3cn[nH]c3c2)cc1` the EC50 was > 35 µM (inactive). Compound `O=C(Nc1ncccc1O)c1ccc(S(=O)(=O)Nc2ccccc2)cc1` has a pEC50 of 5.04. For `CCC(=O)NC(c1ccc(C)cc1)c1ccc2cccnc2c1O` (configuration not stated), the pEC50 was 5.41. For `COc1ccc(CN2CCNC(=O)C2CC(=O)N(C)CC2CCOCC2)cc1OC` (configuration not stated), the EC50 was > 35 µM (inactive). In the case of `COc1cccc(OCc2cc(C(=O)N3CCN(c4ccccc4OC)CC3)no2)c1`, the EC50 was > 35 µM (inactive). `Fc1ccc(CSc2ccc(-c3ccco3)nn2)cc1` was tested, and the EC50 was > 35 µM (inactive). With `O=C(CN1CCCCC1)N1CCCc2ccccc21` the EC50 was > 35 µM (inactive). For `Cc1ccc(C2=NOC(=O)/C2=C\c2ccccc2)cc1`, the EC50 was > 35 µM (inactive). Work on `CCc1cc2c(=O)[nH]c(-c3ccccn3)nc2s1` yielded a pEC50 of 5.32. In the case of `CC1CCN(Cc2nnnn2CCCC(=O)NCCc2cnn(C)c2)CC1`, the EC50 was > 35 µM (inactive). For `COc1ccc(C2(C)NC(=O)NC2=O)cc1OC` (configuration not stated), the EC50 was > 35 µM (inactive). For `CCOc1ccc2c(C)c(Cl)c(=O)oc2c1`, the EC50 was > 35 µM (inactive). Compound `Cc1cc(C)n(-c2ccc3cccc(NS(C)(=O)=O)c3n2)n1` has a pEC50 of 5.25. In the case of `CCn1c(N2CCC(Cc3ccccc3)CC2)nc2c1c(=O)[nH]c(=O)n2C`, the EC50 was > 35 µM (inactive). With `COC(=O)CN1C(=O)[C@H]2[C@@H](c3ccc(C)o3)N3C(=O)CN(CC4CC4)C(=O)[C@@]3(Cc3ccccc3)[C@H]2C1=O` the EC50 was > 35 µM (inactive). `COc1ccc(C(NC(=O)C(C)C)c2ccc3cccnc3c2O)cc1` (configuration not stated) was tested, and the pEC50 was 5.58. In the case of `O=C(NCCc1ccccc1)c1cc2sccc2n1Cc1ccccc1`, the EC50 was > 35 µM (inactive). `CC(=O)c1cccc(N(C(=O)c2ccccn2)C(C(=O)NC2CCCCC2)c2ccccc2)c1` (configuration not stated) was tested, and the EC50 was > 35 µM (inactive). `CCOC(=O)C1=C(c2ccccc2)NC(=O)NC1c1ccc(O)c(Cl)c1` (configuration not stated) showed a pEC50 of 4.90. With `CC(=O)NC(c1ccc(Cl)cc1Cl)c1ccc2cccnc2c1O` (configuration not stated) the pEC50 was 4.89. For `CC(C)c1cc(-c2cc(C(=O)NCc3ccccc3)on2)nc(NC2CCCC2)n1`, the EC50 was > 35 µM (inactive). For `O=C(CSc1nnc(-c2ccccc2Cl)o1)N1CCOCC1`, the EC50 was > 35 µM (inactive). For `CCN(CC)CCC(=O)Nc1cccc2c1C(=O)c1ccccc1C2=O`, the EC50 was > 35 µM (inactive). `O=c1oc2cc([N+](=O)[O-])ccc2nc1/C=C(\O)c1cccc(Br)c1` was tested, and the EC50 was > 35 µM (inactive). With `COCCn1c(=NC(=O)c2ccc(S(=O)(=O)N3CCCc4ccccc43)cc2)sc2cc(S(C)(=O)=O)ccc21` the EC50 was > 35 µM (inactive). In the case of `O=C(NCCc1ccccc1)C1CCN(S(=O)(=O)c2ccc(-n3cnnn3)cc2)CC1`, the EC50 was > 35 µM (inactive). For `CCOC(=O)c1c(C)[nH]c(C)c1S(=O)(=O)N1c2ccccc2CC1C` (configuration not stated), the EC50 was > 35 µM (inactive). With `CCCn1c(SCC(=O)N2CCc3ccccc3C2)nc2c1c(=O)n(C)c(=O)n2C` the EC50 was > 35 µM (inactive). With `Nc1ncnc2c1ncn2CCN1CCOCC1` the EC50 was > 35 µM (inactive). With `Cc1ccc(/C=N\Nc2nc3ccc(Cl)cc3[nH]2)o1` the EC50 was > 35 µM (inactive). For `CS(=O)(=O)c1cccc(C(=O)N(CCc2ccccc2)Cc2cccs2)c1`, the EC50 was > 35 µM (inactive). For `Cc1ccccc1-c1nc2ccccc2c(=O)n1/N=C/c1ccccc1[N+](=O)[O-]`, the EC50 was > 35 µM (inactive). With `C(=N\Nc1nc2ccccc2[nH]1)/c1cccc2cccnc12` the pEC50 was 4.92. `CCOC(=O)c1sc(Nc2cccc(Cl)c2)nc1C` was tested, and the EC50 was > 35 µM (inactive). Work on `COc1ccccc1-c1cc(C(F)(F)F)nc(S(C)(=O)=O)n1` yielded a pEC50 of 4.74. For `Nc1cc2c3c(cccc3c1)C(=O)N(CCN1CCCC1)C2=O`, the pEC50 was 4.78. For `COc1ccc(Cc2nnc(SCC(=O)NC3CCCCC3)n2C)cc1`, the EC50 was > 35 µM (inactive). With `COc1ccc(NC(=O)Nc2ccc(Br)cn2)cc1` the EC50 was > 35 µM (inactive). For `CCC(=O)NC(c1ccccc1OC)c1ccc2cccnc2c1O` (configuration not stated), the pEC50 was 5.21. In the case of `CCCCc1ccc(NC(=O)C2CCN(S(C)(=O)=O)CC2)cc1`, the EC50 was > 35 µM (inactive). For `CCOC(=O)/C(N=Nc1ccc(F)cc1)=C(/O)c1ccc([N+](=O)[O-])cc1`, the EC50 was > 35 µM (inactive). For `COC(=O)c1cn(C)c2ccc(S(=O)(=O)N3CCCCC3)cc2c1=O`, the EC50 was > 35 µM (inactive). For `CN(C)/N=C/C=C1\CCC/C(=C/c2cccs2)C1=O`, the EC50 was > 35 µM (inactive). In the case of `C/C(=N\Nc1ccc2nncn2n1)c1ccccn1`, the pEC50 was 5.42. In the case of `COC(=O)c1ccc(C(C(=O)NCc2ccccc2)N(Cc2ccco2)C(=O)c2cnccn2)cc1` (configuration not stated), the EC50 was > 35 µM (inactive). `CC(=O)c1cccc(NS(=O)(=O)c2ccc(-c3cc(C)no3)s2)c1` was tested, and the EC50 was > 35 µM (inactive). In the case of `N/C(=N\OC(=O)c1cccs1)c1ccc(Cl)cc1`, the EC50 was > 35 µM (inactive). Compound `O=C(NCCCN1CCOCC1)c1cc(-c2ccccc2)on1` has a pEC50 of 5.03. In the case of `COc1cc(NC(=O)CN2C(=O)c3ccccc3Sc3ccc(C(=O)N4CCOCC4)cc32)cc(OC)c1OC`, the EC50 was > 35 µM (inactive). For `CCN(CC)CCCNC(=O)C1c2ccccc2C(=O)N(C)C1c1ccc(OC)cc1` (configuration not stated), the EC50 was > 35 µM (inactive). With `Cc1ccc(S(=O)(=O)N2CCOC23CCN(C(=O)c2cc(Cl)ccc2Cl)CC3)cc1` the EC50 was > 35 µM (inactive). With `CCOc1ccc(N2C(=O)CC(Sc3nc(C)cc(C)n3)C2=O)cc1` (configuration not stated) the EC50 was > 35 µM (inactive). In the case of `COc1ccc(/C=N/NC(=O)c2cccnc2)cc1CN1CCN(c2ccc(F)cc2)CC1`, the EC50 was > 35 µM (inactive). With `CCOc1ccc(NC(=O)COc2ccccc2)c([N+](=O)[O-])c1` the EC50 was > 35 µM (inactive). For `Nc1ccnn1-c1ccccc1`, the EC50 was > 35 µM (inactive). For `Cc1ccsc1C(=O)N/N=C/c1ccc([N+](=O)[O-])cc1`, the EC50 was > 35 µM (inactive). With `CN(C(=O)COC(=O)c1ccc(F)c(S(=O)(=O)N2CCOCC2)c1)C1CCS(=O)(=O)C1` (configuration not stated) the EC50 was > 35 µM (inactive). `Cc1ccc(C2=NS(=O)(=O)N(C)C(C(=O)NC3CCCC3)=C2)cc1` was tested, and the EC50 was > 35 µM (inactive). `O=C(CCCCCN1C(=O)c2ccccc2C1=O)Nc1ccc2c(c1)OCCO2` was tested, and the EC50 was > 35 µM (inactive). Compound `CCCCC(=O)NC(c1ccc(Cl)cc1)c1ccc2cccnc2c1O` (configuration not stated) has a pEC50 of 5.78. For `Cc1cc(C)nc(N/N=C/c2cc(Br)ccc2O)n1`, the pEC50 was 5.08.
